From patent US20150104525A1, “METHOD OF DECREASING FEED CONVERSION RATIO IN FOWL” (Reoxcyn Discoveries Group, Inc., priority 2013, published 2015)

Tested on: NRF2
Assay: Western Blot validation of NRF2 nuclear accumulation and extra-nuclear protein phosphorylation
Assay type: cell-based, human
Settings: HMVEC-L
Description: 8. A Western Blot analysis was done on extra-nuclear and intra-nuclear fractions, separated by differential centrifugation, of serum starved HMVEC-L cell cultures exposed to <1% of a composition of the invention compared with a positive hydrogen peroxide control to determine phosphorylation events (oxidant action) in the extra-nuclear fraction and NRF2 (antioxidant transcription) in the intra-nuclear fraction at 0, 30, 60, 90 and 120 min intervals.
Experimental Methods for Western Blot Validation of NRF2 Nuclear Accumulation: HMVEC-L were treated with 1% of a composition of the invention, nuclear extracts were separated through centrifugal differentiation from the extra-nuclear cytosol at 30, 60 and 120 min and subjected to Western Blot analysis for NRF2. In the Western blot experiment the extra-nuclear fraction was probed for phosphorylated proteins using a combination of anti-phospho serine, threonine and tyrosine antibodies. Virtually all cellular processes are regulated by posttranslational modifications and protein phosphorylation is a prevalent mechanism. […]

OO [H2O2, Hydrogen peroxide]
nuclear NRF2 levels (H2O2 positive control, 30 min): did not increase nuclear NRF2 levels | phosphorylation of extra-nuclear protein (H2O2 treatment): marked increase in the phosphorylation
